These results are taken from patent publication US11878975B2, “Substituted indole compounds useful as TLR inhibitors” (BRISTOL-MYERS SQUIBB COMPANY, priority 2017, dated 2024).

Structures are written as SMILES.

Common to all, as to format: cell-based
The target in one assay is T1, human TLR8 (Homo sapiens, UniProt Q9NR97).
T1 construct: host or cells: HEK-Blue cells
T1 sequence (Q9NR97 27-1041): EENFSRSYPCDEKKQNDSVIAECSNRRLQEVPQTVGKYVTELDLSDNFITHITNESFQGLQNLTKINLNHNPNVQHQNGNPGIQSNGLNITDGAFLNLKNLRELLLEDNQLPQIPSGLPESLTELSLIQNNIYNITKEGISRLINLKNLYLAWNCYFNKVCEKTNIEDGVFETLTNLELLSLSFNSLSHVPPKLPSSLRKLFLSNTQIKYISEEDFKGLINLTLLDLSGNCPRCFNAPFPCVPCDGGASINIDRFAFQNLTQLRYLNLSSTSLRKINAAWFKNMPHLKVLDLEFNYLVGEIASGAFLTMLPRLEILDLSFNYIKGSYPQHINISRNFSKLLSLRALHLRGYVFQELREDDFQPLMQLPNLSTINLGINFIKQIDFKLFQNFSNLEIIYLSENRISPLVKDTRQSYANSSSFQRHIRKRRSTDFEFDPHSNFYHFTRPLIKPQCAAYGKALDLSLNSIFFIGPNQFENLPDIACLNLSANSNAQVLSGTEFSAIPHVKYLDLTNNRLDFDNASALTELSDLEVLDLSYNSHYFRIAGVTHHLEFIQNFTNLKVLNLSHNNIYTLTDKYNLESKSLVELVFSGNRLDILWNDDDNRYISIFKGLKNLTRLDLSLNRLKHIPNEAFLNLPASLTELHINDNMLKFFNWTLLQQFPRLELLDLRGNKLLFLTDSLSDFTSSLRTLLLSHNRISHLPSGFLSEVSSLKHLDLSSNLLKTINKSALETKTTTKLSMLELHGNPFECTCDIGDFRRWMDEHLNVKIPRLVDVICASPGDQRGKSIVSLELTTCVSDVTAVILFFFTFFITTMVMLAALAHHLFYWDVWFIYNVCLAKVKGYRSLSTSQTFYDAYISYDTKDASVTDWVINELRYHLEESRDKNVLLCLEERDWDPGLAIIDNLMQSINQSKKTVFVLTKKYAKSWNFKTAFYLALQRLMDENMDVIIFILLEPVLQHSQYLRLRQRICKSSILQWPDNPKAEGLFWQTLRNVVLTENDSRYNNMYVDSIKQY
The assay can be described thus: TLR8 inhibition reporter assay (HEK-Blue cells, SEAP reporter, R848 stimulation). Conditions: HEK-Blue cells overexpressing human TLR8, SEAP reporter, R848 15.9 μM. In a few lines:
(§1)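 HEK-Blue cells with NF-κB/AP-1-driven SEAP reporter, pre-treated 30 min at room temperature with compound (0.05 nM-50 μM). Stimulants: gardiquimod 7.5 μM (TLR7), R848 15.9 μM (TLR8) or ODN2006 5 nM (TLR9). SEAP measured after 22 h at 37° C.; percent inhibition versus agonist-plus-DMSO and known-inhibitor wells.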
(In a reporter assay the amount or activity of a reporter protein is the signal.)

For a further assay, the target named is T2, human TLR9 (Homo sapiens, UniProt Q9NR96).
T2 construct: host or cells: HEK-Blue cells
T2 sequence (Q9NR96 26-1032): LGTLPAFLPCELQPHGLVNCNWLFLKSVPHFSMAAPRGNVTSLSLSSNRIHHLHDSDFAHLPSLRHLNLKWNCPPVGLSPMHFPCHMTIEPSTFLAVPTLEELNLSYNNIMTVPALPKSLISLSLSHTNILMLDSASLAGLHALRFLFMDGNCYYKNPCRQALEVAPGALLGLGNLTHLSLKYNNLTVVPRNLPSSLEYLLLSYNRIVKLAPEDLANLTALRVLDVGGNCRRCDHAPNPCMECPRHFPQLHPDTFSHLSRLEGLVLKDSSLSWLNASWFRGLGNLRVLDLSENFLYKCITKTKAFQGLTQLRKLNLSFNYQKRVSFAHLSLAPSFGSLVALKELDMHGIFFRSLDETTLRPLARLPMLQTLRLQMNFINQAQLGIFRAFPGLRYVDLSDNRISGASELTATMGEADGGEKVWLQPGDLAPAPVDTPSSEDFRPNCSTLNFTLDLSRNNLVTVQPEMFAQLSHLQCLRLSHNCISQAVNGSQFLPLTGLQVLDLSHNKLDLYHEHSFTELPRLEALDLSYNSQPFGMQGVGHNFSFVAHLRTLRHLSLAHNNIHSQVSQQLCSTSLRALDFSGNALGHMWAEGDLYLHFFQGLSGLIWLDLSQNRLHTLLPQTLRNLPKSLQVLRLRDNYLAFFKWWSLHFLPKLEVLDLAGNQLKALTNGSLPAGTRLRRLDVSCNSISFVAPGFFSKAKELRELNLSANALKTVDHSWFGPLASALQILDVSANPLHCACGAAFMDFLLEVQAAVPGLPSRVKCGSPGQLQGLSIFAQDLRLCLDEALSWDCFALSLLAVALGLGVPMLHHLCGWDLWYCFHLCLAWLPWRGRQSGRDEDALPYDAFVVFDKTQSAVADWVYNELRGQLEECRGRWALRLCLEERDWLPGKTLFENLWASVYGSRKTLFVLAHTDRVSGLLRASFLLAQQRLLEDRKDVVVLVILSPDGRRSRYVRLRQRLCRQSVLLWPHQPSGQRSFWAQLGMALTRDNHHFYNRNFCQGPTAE
The assay can be described thus: TLR9 inhibition reporter assay (HEK-Blue cells, SEAP reporter, ODN2006 stimulation). Conditions: HEK-Blue cells overexpressing human TLR9, SEAP reporter, ODN2006 5 nM. In a few lines:
as §1

The next assay has as its target T3, human TLR7 (Homo sapiens, UniProt Q9NYK1).
T3 construct: host or cells: HEK-Blue cells
T3 sequence (Q9NYK1 27-1049): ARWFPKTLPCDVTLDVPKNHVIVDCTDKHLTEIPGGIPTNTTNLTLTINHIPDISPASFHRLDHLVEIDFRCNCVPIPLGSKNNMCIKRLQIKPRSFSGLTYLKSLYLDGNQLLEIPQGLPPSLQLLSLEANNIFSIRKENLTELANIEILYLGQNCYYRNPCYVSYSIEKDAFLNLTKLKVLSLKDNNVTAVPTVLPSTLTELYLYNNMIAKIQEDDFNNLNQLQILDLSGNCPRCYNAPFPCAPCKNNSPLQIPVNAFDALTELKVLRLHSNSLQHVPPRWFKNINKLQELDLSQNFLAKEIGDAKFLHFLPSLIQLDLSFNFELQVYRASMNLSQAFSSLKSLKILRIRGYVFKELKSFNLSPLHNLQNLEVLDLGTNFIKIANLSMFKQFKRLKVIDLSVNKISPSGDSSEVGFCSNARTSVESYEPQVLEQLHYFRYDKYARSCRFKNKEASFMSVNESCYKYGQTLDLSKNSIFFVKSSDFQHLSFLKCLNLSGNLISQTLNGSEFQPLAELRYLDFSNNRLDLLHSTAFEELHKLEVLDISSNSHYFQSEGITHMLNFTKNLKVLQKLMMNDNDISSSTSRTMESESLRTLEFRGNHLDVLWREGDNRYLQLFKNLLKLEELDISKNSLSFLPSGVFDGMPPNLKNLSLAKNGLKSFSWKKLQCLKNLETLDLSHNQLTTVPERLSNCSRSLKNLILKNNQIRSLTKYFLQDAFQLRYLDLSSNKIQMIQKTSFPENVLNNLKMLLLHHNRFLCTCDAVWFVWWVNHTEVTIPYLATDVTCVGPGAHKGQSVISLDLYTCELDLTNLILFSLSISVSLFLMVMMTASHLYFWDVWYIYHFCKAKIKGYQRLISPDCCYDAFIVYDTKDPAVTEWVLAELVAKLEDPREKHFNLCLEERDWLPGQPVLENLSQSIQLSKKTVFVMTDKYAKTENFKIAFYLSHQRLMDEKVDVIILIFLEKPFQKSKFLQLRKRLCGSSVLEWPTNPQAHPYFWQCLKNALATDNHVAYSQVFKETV
The assay can be described thus: TLR7 inhibition reporter assay (HEK-Blue cells, SEAP reporter, gardiquimod stimulation). Particulars: HEK-Blue cells overexpressing human TLR7, SEAP reporter, gardiquimod 7.5 μM. In a few lines:
as §1

Broadly, the IC50 is the midpoint of a concentration-inhibition curve. Lower therefore signals inhibition by little substance.

For `CNC(=O)CN1CCOC(c2ccc3[nH]c(-c4cc(OC)c5ncnn5c4)c(C(C)C)c3c2)C1` (stereo not drawn) [Example 310], the half-maximal inhibitory concentration (IC50) was 0.057 µM on human TLR8, above 50 µM against human TLR9 and 0.015 µM against human TLR7.

In the case of `CNC(=O)CN1CCOC(c2ccc3[nH]c(-c4cn5ncnc5c(C)c4C)c(C(C)C)c3c2)C1` (stereo not drawn) [Example 311], the 50% inhibitory concentration (IC50) at human TLR8 was 0.038 µM; against human TLR9 it was above 50 µM; on human TLR7 it was 0.017 µM.

Regarding `Cc1c(-c2[nH]c3ccc(C4CN(CC(=O)N(C)C)CCO4)cc3c2C(C)C)cn2ncnc2c1C` (stereo not drawn) [Example 312], the figures for the IC50 on human TLR8, against human TLR9 and against human TLR7 were 0.021 µM, above 50 µM and 0.046 µM, respectively.

In the case of `CNC(=O)CN1CCOC(c2ccc3[nH]c(-c4cn5ncnc5c(C)c4C)c(C(C)C)c3c2)C1` (stereo not drawn) [Example 313], the values for the concentration for half-maximal inhibition (IC50) at human TLR8, at human TLR9 and against human TLR7 were 0.06 µM, above 50 µM and 0.025 µM, respectively.

Take `COc1cc(-c2[nH]c3ccc(C4CN(CC(=O)N(C)C)CCO4)cc3c2C(C)C)cn2ncnc12` (stereo not drawn) [Example 314]: the results for the concentration for half-maximal inhibition (IC50) against human TLR8, on human TLR9 and at human TLR7 were 0.013 µM, above 50 µM and 0.024 µM, respectively.

Take `CNC(=O)CN1CCOC(c2ccc3[nH]c(-c4cc(OC)c5ncnn5c4)c(C(C)C)c3c2)C1` (stereo not drawn) [Example 315]: the half-maximal inhibitory concentration (IC50) against human TLR8 was 0.026 µM; at human TLR9 it was above 50 µM; on human TLR7, 0.009 µM.

As to `CNC(=O)CN1CCOC(c2ccc3[nH]c(-c4cc(C)c5ncnn5c4)c(C(C)C)c3c2)C1` (stereo not drawn) [Example 317], the IC50 against human TLR8 was 0.09 µM; against human TLR9, above 50 µM; against human TLR7, 0.012 µM.

For the compound `Cc1cc(-c2[nH]c3ccc(C4CN(CC(N)=O)CCO4)cc3c2C(C)C)cn2ncnc12` (stereo not drawn) [Example 318], the IC50 against human TLR8 was 0.048 µM; against human TLR9, above 50 µM; against human TLR7, 0.006 µM.

As for `Cc1c(-c2[nH]c3ccc(C4CN(CC(N)=O)CCO4)cc3c2C(C)C)cn2ncnc2c1C` (stereo not drawn) [Example 319], the values for the half-inhibitory concentration (IC50) against human TLR8, against human TLR9 and against human TLR7 were 0.024 µM, above 50 µM and 0.014 µM, respectively.

For `Cc1c(-c2[nH]c3ccc(C4CN(CC(N)=O)CCO4)cc3c2C(C)C)cn2ncnc2c1C` (stereo not drawn) [Example 320], the half-inhibitory concentration (IC50) on human TLR8 was 0.054 µM; against human TLR9, above 50 µM; on human TLR7 it was 0.016 µM.

As for `Cc1c(-c2[nH]c3ccc(C4CN(CC(=O)N(C)C)CCO4)cc3c2C(C)C)cn2ncnc2c1C` (stereo not drawn) [Example 321], the values for the half-maximal inhibitory concentration (IC50) at human TLR8, against human TLR9 and at human TLR7 were 0.025 µM, above 50 µM and 0.015 µM, respectively.

Regarding `Cc1cc(-c2[nH]c3ccc(C4CN(CC(=O)N(C)C)CCO4)cc3c2C(C)C)cc(C)n1` (stereo not drawn) [Example 322], the half-inhibitory concentration (IC50) at human TLR8 was found to be 0.086 µM; against human TLR9 it was 20.3 µM; against human TLR7, 0.069 µM.

On to `CNC(=O)CN1CCOC(c2ccc3[nH]c(-c4cc(C)nc(C)c4)c(C(C)C)c3c2)C1` (stereo not drawn) [Example 323], for which the values for the IC50 on human TLR8, against human TLR9 and against human TLR7 were 0.054 µM, above 50 µM and 0.035 µM, respectively.

`Cc1cc(-c2[nH]c3ccc(C4CN(CC(N)=O)CCO4)cc3c2C(C)C)cc(C)n1` (stereo not drawn) [Example 324]: the IC50 on human TLR8 was 0.114 µM; on human TLR9 it was 45 µM; on human TLR7 it was 0.044 µM.

Regarding `CNC(=O)CN1CCOC(c2ccc3[nH]c(-c4cc(C)nc(C)c4)c(C(C)C)c3c2)C1` (stereo not drawn) [Example 325], the IC50 against human TLR8 amounted to 0.021 µM; against human TLR9, 36.8 µM; against human TLR7, 0.029 µM.

For `Cc1cc(-c2[nH]c3ccc(C4CN(CC(=O)N(C)C)CCO4)cc3c2C(C)C)cc(C)n1` (stereo not drawn) [Example 326], the 50% inhibitory concentration (IC50) came out at 0.028 µM against human TLR8, 19.4 µM on human TLR9 and 0.075 µM against human TLR7.

For the compound `Cc1cc(-c2[nH]c3ccc(C4CN(CC(N)=O)CCO4)cc3c2C(C)C)cc(C)n1` (stereo not drawn) [Example 327], the IC50 was 0.048 µM at human TLR8, above 50 µM against human TLR9 and 0.054 µM against human TLR7.

In the case of `Cc1cc(-c2[nH]c3ccc(C4CN(C(=O)CN(C)C)CCO4)cc3c2C(C)C)cn2ncnc12` (stereo not drawn) [Example 328, 2-(dimethylamino)-1-(2-(3-isopropyl-2-(8-methyl-[1,2,4]triazolo[1,5-a]pyridin-6-yl)-1H-indol-5-yl)morpholino)ethanone], the IC50 amounted to 0.0082 µM on human TLR8, 5.49 µM against human TLR9 and 0.00085 µM on human TLR7.

Turning to `Cc1c(-c2[nH]c3ccc(C4CN(C(=O)CN(C)C)CCO4)cc3c2C(C)C)cn2ncnc2c1C` (stereo not drawn) [Example 329], the figures for the IC50 at human TLR8, against human TLR9 and at human TLR7 were 0.0034 µM, 4.14 µM and 0.001 µM, respectively.

Turning to `Cc1c(-c2[nH]c3ccc(C4CN(C(=O)CN(C)C)CCO4)cc3c2C(C)C)cn2ncnc2c1C` (stereo not drawn) [Example 330], the IC50 against human TLR8 is 0.0034 µM; on human TLR9, 3.33 µM; on human TLR7, 0.001 µM.

Take `Cc1cc(-c2[nH]c3ccc(C4CN(C(=O)CN(C)C)CCO4)cc3c2C(C)C)cn2ncnc12` (stereo not drawn) [Example 331]: the figures for the IC50 on human TLR8, at human TLR9 and against human TLR7 were 0.0046 µM, 3.62 µM and 0.001 µM, respectively.
